# Results reported in the supplement of paper PMC10307832.
# Compound: NC(=O)c1ccc(N(C(N)=O)c2c(F)cccc2F)nc1-c1ccc(F)cc1F [VX-702] + CC1(C)CCC(c2ccc(Cl)cc2)=C(CN2CCN(c3ccc(C(=O)NS(=O)(=O)c4ccc(N[C@H](CCN5CCOCC5)CSc5ccccc5)c(S(=O)(=O)C(F)(F)F)c4)cc3)CC2)C1 [Navitoclax] (partner 0.5 µM)
# Assay: relative viability (nuclei count vs DMSO), 5 days (fraction); higher = more cells survive
# Settings: first compound 2 µM
# Summary of the method: (§1)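 The day after seeding in 1536-well plates, lung cancer cell lines were treated by pin tool with a single drug, or with a fixed anchor-drug dose together with five library-drug doses (not always all listed) in √10 steps. After 5 days, a combined fix-and-stain solution (final 0.05% Triton X-100, 1% formaldehyde, 1 ug/ml Hoechst) was added. Nuclei counted on 4× images gave relative viability as treated counts over vehicle counts, reported as the median of duplicate plates.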
row,Cell Line,relative viability
1,RERF-LC-KJ,0.869
2,NCI-H1734,0.743
3,BEN,0.0662
4,NCI-H460,1.37
5,H3255,0.557
6,SK-LU-1,1.32
7,NCI-H1793,0.542
8,NCI-H23,0.933
9,SW 1573,0.909
10,NCI-H838,1.36

# Compound: NC(=O)c1ccc(N(C(N)=O)c2c(F)cccc2F)nc1-c1ccc(F)cc1F [VX-702] + COc1cc2c(Oc3ccc(NC(=O)C4(C(=O)Nc5ccc(F)cc5)CC4)cc3F)ccnc2cc1OCCCN1CCOCC1 [Foretinib] (partner 0.25 µM)
# Assay: as above
# Settings: first compound 0.02 µM
# Summary of the method: as §1
row,Cell Line,relative viability
1,NCI-H2170,1.07
2,UMC-11,0.988
3,NCI-H596,0.79
4,HCC-827,1.07
5,COR-L 105,1.02
6,NCI-H2126,1.15
7,NCI-H647,1.22
8,LOU-NH91,0.94
9,HCC-78,0.523
10,NCI-H1651,0.814
11,NCI-H1755,0.93
12,HOP-62,1.18
13,PC-14,1.02
14,NCI-H1650,1.04
15,ChaGo-K-1,0.867
16,A-427,1.06

row,Cell Line,relative viability
1,NCI-H1355,0.931
2,HCC-15,0.952
3,LU99A,0.871
4,EKVX,0.754
5,COR-L23,1.04
6,NCI-H1437,1.31
7,RERF-LC-KJ,0.995
8,NCI-H1734,0.791
9,BEN,0.73
10,NCI-H460,1.06
11,H3255,1.01
12,SK-LU-1,0.917
13,NCI-H1793,0.671
14,NCI-H23,0.961
15,SW 1573,1.05
16,NCI-H838,1.02

# Same assay, conditions: first compound 0.2 µM
row,Cell Line,relative viability
1,NCI-H2170,1
2,UMC-11,0.843
3,NCI-H596,0.82
4,HCC-827,0.988
5,COR-L 105,0.838
6,NCI-H2126,1.1
7,NCI-H647,1.08
8,LOU-NH91,0.973
9,HCC-78,0.527
10,NCI-H1651,0.794
11,NCI-H1755,0.952
12,HOP-62,1.19
13,PC-14,0.956
14,NCI-H1650,1.17
15,ChaGo-K-1,0.892
16,A-427,1.03

row,Cell Line,relative viability
1,NCI-H1355,1.01
2,HCC-15,0.915
3,LU99A,0.677
4,EKVX,0.432
5,COR-L23,1
6,NCI-H1437,1.3
7,RERF-LC-KJ,0.923
8,NCI-H1734,0.729
9,BEN,0.556
10,NCI-H460,0.998
11,H3255,0.781
12,SK-LU-1,0.786
13,NCI-H1793,0.705
14,NCI-H23,1.03
15,SW 1573,0.876
16,NCI-H838,1.01

# Same assay, conditions: first compound 0.6325 µM
row,Cell Line,relative viability
1,NCI-H2170,1.08
2,UMC-11,0.893
3,NCI-H596,1.11
4,HCC-827,1.07
5,COR-L 105,1.14
6,NCI-H2126,1.21
7,NCI-H647,1
8,LOU-NH91,0.994
9,HCC-78,0.59
10,NCI-H1651,0.824
11,NCI-H1755,0.807
12,HOP-62,1.25
13,PC-14,0.986
14,NCI-H1650,1.02
15,ChaGo-K-1,0.893
16,A-427,0.97

row,Cell Line,relative viability
1,NCI-H1355,0.923
2,HCC-15,0.99
3,LU99A,0.786
4,EKVX,0.49
5,COR-L23,0.995
6,NCI-H1437,1.35
7,RERF-LC-KJ,0.984
8,NCI-H1734,0.704
9,BEN,0.57
10,NCI-H460,1.12
11,H3255,0.89
12,SK-LU-1,0.777
13,NCI-H1793,0.703
14,NCI-H23,1.15
15,SW 1573,0.784
16,NCI-H838,1.13

# Same assay, conditions: first compound 2 µM
row,Cell Line,relative viability
1,NCI-H2170,1.03
2,UMC-11,1.21
3,NCI-H596,0.992
4,HCC-827,0.787
5,COR-L 105,1.3
6,NCI-H2126,1.18
7,NCI-H647,1.4
8,LOU-NH91,0.704
9,HCC-78,0.479
10,NCI-H1651,0.803
11,NCI-H1755,0.944
12,HOP-62,1.33
13,PC-14,1.08
14,NCI-H1650,1.29
15,ChaGo-K-1,0.901
16,A-427,1.08

row,Cell Line,relative viability
1,NCI-H1355,1.01
2,HCC-15,0.793
3,LU99A,0.721
4,EKVX,0.685
5,COR-L23,1.38
6,NCI-H1437,1.41
7,RERF-LC-KJ,0.934
8,NCI-H1734,0.813
9,BEN,0.876
10,NCI-H460,1.08
11,H3255,0.855
12,SK-LU-1,1.01
13,NCI-H1793,0.719
14,NCI-H23,1.21
15,SW 1573,0.679
16,NCI-H838,1.2

# Compound: NC(=O)c1ccc(N(C(N)=O)c2c(F)cccc2F)nc1-c1ccc(F)cc1F [VX-702] + Nc1nc2[nH]cc(CCc3ccc(C(=O)N[C@@H](CCC(=O)O)C(=O)O)cc3)c2c(=O)[nH]1 [Pemetrexed] (partner 0.2 µM)
# Assay: as above
# Settings: first compound 0.02 µM
# Summary of the method: as §1
row,Cell Line,relative viability
1,NCI-H2170,0.275
2,UMC-11,0.908
3,NCI-H596,0.535
4,HCC-827,0.244
5,COR-L 105,1.06
6,NCI-H2126,0.717
7,NCI-H647,0.174
8,LOU-NH91,0.383
9,HCC-78,0.874
10,NCI-H1651,0.523
11,NCI-H1755,0.473
12,HOP-62,0.365
13,PC-14,0.142
14,NCI-H1650,0.325
15,ChaGo-K-1,0.249
16,A-427,1.06

row,Cell Line,relative viability
1,NCI-H1355,1.05
2,HCC-15,0.223
3,LU99A,0.173
4,EKVX,0.463
5,COR-L23,0.203
6,NCI-H1437,0.345
7,RERF-LC-KJ,0.504
8,NCI-H1734,0.386
9,BEN,0.825
10,NCI-H460,0.0627
11,H3255,0.565
12,SK-LU-1,1.01
13,NCI-H1793,0.884
14,NCI-H23,0.655
15,SW 1573,0.759
16,NCI-H838,0.234

# Same assay, conditions: first compound 0.2 µM
row,Cell Line,relative viability
1,NCI-H2170,0.264
2,UMC-11,0.711
3,NCI-H596,0.455
4,HCC-827,0.252
5,COR-L 105,1
6,NCI-H2126,0.659
7,NCI-H647,0.172
8,LOU-NH91,0.366
9,HCC-78,0.883
10,NCI-H1651,0.57
11,NCI-H1755,0.404
12,HOP-62,0.311
13,PC-14,0.15
14,NCI-H1650,0.34
15,ChaGo-K-1,0.257
16,A-427,0.993

row,Cell Line,relative viability
1,NCI-H1355,1.01
2,HCC-15,0.22
3,LU99A,0.164
4,EKVX,0.345
5,COR-L23,0.183
6,NCI-H1437,0.261
7,RERF-LC-KJ,0.6
8,NCI-H1734,0.377
9,BEN,0.689
10,NCI-H460,0.0509
11,H3255,0.612
12,SK-LU-1,0.965
13,NCI-H23,0.654
14,SW 1573,0.914
15,NCI-H838,0.24

# Same assay, conditions: first compound 0.6325 µM
row,Cell Line,relative viability
1,NCI-H2170,0.309
2,UMC-11,0.755
3,NCI-H596,0.567
4,HCC-827,0.287
5,COR-L 105,1.14
6,NCI-H2126,0.676
7,NCI-H647,0.133
8,LOU-NH91,0.385
9,HCC-78,0.901
10,NCI-H1651,0.559
11,NCI-H1755,0.384
12,HOP-62,0.284
13,PC-14,0.124
14,NCI-H1650,0.384
15,ChaGo-K-1,0.269
16,A-427,0.986

row,Cell Line,relative viability
1,NCI-H1355,1.02
2,HCC-15,0.227
3,LU99A,0.184
4,EKVX,0.38
5,COR-L23,0.21
6,NCI-H1437,0.318
7,RERF-LC-KJ,0.484
8,NCI-H1734,0.413
9,BEN,0.623
10,NCI-H460,0.055
11,H3255,0.551
12,SK-LU-1,0.936
13,NCI-H1793,0.806
14,NCI-H23,0.714
15,SW 1573,0.775
16,NCI-H838,0.254

# Same assay, conditions: first compound 2 µM
row,Cell Line,relative viability
1,NCI-H2170,0.278
2,UMC-11,0.922
3,NCI-H596,0.534
4,HCC-827,0.18
5,COR-L 105,1.25
6,NCI-H2126,0.624
7,NCI-H647,0.144
8,LOU-NH91,0.412
9,HCC-78,0.889
10,NCI-H1651,0.566
11,NCI-H1755,0.378
12,HOP-62,0.309
13,PC-14,0.119
14,NCI-H1650,0.403
15,ChaGo-K-1,0.26
16,A-427,1.06

row,Cell Line,relative viability
1,NCI-H1355,1.09
2,HCC-15,0.248
3,LU99A,0.16
4,EKVX,0.431
5,COR-L23,0.23
6,NCI-H1437,0.324
7,RERF-LC-KJ,0.454
8,NCI-H1734,0.409
9,BEN,0.86
10,NCI-H460,0.057
11,H3255,0.599
12,SK-LU-1,1.04
13,NCI-H1793,1.06
14,NCI-H23,0.774
15,SW 1573,0.741
16,NCI-H838,0.236
